From publication PMC5041959, “A high-content EMT screen identifies multiple receptor tyrosine kinase inhibitors with activity on TGFβ receptor” (Oncotarget, 2016)
Where two headings read alike, the source gives them in different places.

Columns and labels:
ROCK1 = ROCK1 (Homo sapiens, UniProt Q13464); experiment: Biochemical kinase profiling (33PanQinase radiometric assay)
PDGFRB = PDGFRB (Homo sapiens, UniProt P09619); experiment: as above
ROCK2 = ROCK2 (Homo sapiens, UniProt O75116); experiment: as above
ROCK2, sequence (O75116 whole entry): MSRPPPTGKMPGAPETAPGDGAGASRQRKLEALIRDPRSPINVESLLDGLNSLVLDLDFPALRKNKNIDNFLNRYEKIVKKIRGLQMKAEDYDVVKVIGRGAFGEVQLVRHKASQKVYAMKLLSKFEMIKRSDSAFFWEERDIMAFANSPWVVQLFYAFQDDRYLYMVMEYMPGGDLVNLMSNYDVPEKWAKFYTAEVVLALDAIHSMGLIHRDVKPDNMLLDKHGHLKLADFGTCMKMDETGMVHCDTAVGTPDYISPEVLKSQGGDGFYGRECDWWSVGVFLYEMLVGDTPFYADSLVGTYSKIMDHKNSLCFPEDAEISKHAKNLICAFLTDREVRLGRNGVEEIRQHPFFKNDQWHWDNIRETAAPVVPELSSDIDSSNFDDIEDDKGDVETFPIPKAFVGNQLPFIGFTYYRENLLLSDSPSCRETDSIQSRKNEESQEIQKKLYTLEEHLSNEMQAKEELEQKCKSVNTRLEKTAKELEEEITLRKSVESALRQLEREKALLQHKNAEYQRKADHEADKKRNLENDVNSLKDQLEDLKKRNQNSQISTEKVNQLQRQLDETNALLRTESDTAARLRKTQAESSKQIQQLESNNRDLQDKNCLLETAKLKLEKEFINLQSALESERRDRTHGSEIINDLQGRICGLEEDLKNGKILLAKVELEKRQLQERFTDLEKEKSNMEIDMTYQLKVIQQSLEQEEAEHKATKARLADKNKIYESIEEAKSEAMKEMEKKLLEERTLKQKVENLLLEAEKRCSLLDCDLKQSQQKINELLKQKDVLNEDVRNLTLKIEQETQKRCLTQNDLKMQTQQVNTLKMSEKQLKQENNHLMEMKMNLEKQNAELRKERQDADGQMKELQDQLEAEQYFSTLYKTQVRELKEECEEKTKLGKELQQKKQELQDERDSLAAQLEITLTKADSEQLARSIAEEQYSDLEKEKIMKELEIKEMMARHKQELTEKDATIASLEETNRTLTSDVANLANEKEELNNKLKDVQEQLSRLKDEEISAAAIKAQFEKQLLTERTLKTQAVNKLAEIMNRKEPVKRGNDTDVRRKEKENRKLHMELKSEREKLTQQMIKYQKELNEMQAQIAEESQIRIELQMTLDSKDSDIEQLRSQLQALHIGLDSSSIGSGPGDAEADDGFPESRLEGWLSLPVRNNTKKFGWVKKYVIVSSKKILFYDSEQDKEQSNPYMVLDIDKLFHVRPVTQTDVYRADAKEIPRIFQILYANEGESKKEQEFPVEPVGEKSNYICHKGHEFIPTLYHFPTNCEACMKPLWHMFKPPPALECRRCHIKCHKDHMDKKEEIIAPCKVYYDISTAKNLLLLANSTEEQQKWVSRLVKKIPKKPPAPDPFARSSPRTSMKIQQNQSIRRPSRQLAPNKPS

TGFBR2 = TGFBR2 (Homo sapiens, UniProt P37173); experiment: as above
TGFBR2, sequence (P37173 23-567): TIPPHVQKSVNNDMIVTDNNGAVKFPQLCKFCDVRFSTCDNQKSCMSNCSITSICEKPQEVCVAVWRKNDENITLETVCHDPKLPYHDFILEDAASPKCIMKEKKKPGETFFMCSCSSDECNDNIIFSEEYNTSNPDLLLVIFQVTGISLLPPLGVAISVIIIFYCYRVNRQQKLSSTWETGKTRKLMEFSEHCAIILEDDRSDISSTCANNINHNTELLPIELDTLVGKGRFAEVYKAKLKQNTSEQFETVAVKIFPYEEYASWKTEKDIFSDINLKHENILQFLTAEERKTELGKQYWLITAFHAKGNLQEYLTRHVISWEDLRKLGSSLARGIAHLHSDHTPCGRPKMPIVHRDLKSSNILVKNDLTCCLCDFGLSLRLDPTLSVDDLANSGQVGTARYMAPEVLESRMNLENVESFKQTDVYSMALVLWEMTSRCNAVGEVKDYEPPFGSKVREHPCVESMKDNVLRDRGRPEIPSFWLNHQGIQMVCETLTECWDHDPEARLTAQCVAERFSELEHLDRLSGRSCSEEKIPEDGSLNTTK

NMuMG cells = experiment: High-content microscopy EMT screen in TGFβ-treated NMuMG cells (FA, SF, FN, cell count); format: cell-based, murine; details: for Emax (maximal effect on cell count): compared to reference 10 μM SB-431542 = 100%; for Emax: read-out: Emax (maximal effect on cell count)
TGFBR1 = target: T1, TGFBR1 (Homo sapiens, UniProt P36897); experiment: Biochemical kinase profiling (33PanQinase radiometric assay)
T1 sequence (P36897 34-503): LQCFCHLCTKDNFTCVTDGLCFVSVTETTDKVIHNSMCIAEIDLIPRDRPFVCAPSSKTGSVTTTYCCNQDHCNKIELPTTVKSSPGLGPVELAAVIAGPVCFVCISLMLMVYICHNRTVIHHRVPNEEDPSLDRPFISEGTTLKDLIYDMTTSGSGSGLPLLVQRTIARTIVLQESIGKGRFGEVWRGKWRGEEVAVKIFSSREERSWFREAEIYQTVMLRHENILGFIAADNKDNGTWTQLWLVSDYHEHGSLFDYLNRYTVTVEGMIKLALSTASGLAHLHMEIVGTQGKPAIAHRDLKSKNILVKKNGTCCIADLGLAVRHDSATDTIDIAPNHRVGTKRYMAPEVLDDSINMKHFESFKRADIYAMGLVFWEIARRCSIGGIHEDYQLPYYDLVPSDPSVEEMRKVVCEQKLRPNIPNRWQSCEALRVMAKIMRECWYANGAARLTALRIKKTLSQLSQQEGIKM

SRC = SRC (Homo sapiens, UniProt P12931); experiment: as above
Py2T cells = experiment: High-content microscopy EMT assay in TGFβ-treated Py2T breast cancer cells; format: cell-based, murine; details: for Emax (maximal effect on cell count): compared to reference 10 μM SB-431542 = 100%
ROCK = ROCK cellular assay (MLC Thr18/Ser19 phosphorylation ELISA in A7r5 cells); format: cell-based, rat; details: 90 min compound
PDGFRA = PDGFRA (Homo sapiens, UniProt P16234); experiment: Biochemical kinase profiling (33PanQinase radiometric assay); details: read-out: PDGFRA IC50; ATP at apparent Km
FGFR2 = FGFR2 (Homo sapiens, UniProt P21802); experiment: as above
FGFR2, sequence (P21802 22-821): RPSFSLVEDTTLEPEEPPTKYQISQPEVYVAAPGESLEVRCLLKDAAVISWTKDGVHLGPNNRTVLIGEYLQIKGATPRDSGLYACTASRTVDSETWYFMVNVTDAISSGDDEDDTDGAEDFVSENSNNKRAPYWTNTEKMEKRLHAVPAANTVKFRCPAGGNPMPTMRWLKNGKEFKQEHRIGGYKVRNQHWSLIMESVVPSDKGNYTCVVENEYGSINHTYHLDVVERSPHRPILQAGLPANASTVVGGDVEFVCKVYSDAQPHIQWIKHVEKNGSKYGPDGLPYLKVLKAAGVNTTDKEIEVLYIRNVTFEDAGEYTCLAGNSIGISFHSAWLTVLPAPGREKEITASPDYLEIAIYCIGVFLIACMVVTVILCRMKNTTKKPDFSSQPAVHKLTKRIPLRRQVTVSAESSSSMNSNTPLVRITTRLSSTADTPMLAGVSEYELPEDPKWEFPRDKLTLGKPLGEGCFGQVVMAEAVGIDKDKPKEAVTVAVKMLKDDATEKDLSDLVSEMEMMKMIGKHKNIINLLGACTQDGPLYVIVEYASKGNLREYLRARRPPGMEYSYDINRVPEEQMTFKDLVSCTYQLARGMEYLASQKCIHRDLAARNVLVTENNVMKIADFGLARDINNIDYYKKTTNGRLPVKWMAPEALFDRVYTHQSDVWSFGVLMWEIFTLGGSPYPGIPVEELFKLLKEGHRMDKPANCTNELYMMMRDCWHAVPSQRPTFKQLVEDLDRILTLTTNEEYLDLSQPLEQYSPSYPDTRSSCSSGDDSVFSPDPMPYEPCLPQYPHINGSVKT

FGFR3 = FGFR3 (Homo sapiens, UniProt P22607); experiment: as above
FGFR4 = FGFR4 (Homo sapiens, UniProt P22455); experiment: as above
FGFR4, sequence (P22455 22-802): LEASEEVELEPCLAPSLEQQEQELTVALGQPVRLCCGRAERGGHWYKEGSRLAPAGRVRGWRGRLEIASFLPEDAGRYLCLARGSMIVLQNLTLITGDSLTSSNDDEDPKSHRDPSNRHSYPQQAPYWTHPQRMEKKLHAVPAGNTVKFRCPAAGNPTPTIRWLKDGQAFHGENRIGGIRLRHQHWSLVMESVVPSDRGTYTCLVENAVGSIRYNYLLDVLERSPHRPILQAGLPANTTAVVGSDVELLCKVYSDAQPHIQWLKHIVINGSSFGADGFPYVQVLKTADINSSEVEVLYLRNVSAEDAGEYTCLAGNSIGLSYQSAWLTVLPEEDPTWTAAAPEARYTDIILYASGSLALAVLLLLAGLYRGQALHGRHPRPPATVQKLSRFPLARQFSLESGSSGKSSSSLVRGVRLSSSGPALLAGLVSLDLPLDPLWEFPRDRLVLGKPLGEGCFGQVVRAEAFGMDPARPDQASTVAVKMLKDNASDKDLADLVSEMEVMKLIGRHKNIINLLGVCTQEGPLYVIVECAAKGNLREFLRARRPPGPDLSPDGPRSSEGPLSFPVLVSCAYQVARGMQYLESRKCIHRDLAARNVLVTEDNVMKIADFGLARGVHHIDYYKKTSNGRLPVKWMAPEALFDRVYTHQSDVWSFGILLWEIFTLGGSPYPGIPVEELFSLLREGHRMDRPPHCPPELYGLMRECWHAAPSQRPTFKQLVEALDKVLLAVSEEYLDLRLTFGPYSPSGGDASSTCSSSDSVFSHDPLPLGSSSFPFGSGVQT

[1] = Mus musculus, NMuMG, cell count decreased by 50% compared to DMSO control, read-out: Tox IC50
[2] = NMuMG, TGFβ1 2 ng/ml plus compound, 4 days, parameter decreased by 50%
[3] = read-out: ROCK1 IC50, ATP at apparent Km
[4] = Py2T, cell count decreased by 50% compared to DMSO control, read-out: Tox IC50
[5] = Py2T, compared to 10 μM SB-431542, read-out: CCI IC50 (cell count increase)
[6] = read-out: ROCK2 IC50, ATP at apparent Km
[7] = Mus musculus, Py2T, cell count decreased by 50% compared to DMSO control, read-out: Tox IC50
[8] = Mus musculus, read-out: CCI IC50 (cell count increase)
[9] = Mus musculus, 96 h, NMuMG, TGFβ1 2 ng/ml plus compound, 4 days, parameter decreased by 50%, read-out: FA IC50 (focal adhesion formation)
[10] = Mus musculus, 96 h, NMuMG, TGFβ1 2 ng/ml plus compound, 4 days, parameter decreased by 50%, read-out: FN IC50 (fibronectin patch formation)
[11] = Mus musculus, 96 h, NMuMG, TGFβ1 2 ng/ml plus compound, 4 days, parameter decreased by 50%, read-out: SF IC50 (stress fibers)
[12] = Mus musculus, NMuMG, mean of IC50 values obtained for FA, SF, FN, read-out: EMT (FA/SF/FN) combined IC50
[13] = Py2T, TGFβ plus compound, 4 days

ROCK1, sequence (Q13464 whole entry): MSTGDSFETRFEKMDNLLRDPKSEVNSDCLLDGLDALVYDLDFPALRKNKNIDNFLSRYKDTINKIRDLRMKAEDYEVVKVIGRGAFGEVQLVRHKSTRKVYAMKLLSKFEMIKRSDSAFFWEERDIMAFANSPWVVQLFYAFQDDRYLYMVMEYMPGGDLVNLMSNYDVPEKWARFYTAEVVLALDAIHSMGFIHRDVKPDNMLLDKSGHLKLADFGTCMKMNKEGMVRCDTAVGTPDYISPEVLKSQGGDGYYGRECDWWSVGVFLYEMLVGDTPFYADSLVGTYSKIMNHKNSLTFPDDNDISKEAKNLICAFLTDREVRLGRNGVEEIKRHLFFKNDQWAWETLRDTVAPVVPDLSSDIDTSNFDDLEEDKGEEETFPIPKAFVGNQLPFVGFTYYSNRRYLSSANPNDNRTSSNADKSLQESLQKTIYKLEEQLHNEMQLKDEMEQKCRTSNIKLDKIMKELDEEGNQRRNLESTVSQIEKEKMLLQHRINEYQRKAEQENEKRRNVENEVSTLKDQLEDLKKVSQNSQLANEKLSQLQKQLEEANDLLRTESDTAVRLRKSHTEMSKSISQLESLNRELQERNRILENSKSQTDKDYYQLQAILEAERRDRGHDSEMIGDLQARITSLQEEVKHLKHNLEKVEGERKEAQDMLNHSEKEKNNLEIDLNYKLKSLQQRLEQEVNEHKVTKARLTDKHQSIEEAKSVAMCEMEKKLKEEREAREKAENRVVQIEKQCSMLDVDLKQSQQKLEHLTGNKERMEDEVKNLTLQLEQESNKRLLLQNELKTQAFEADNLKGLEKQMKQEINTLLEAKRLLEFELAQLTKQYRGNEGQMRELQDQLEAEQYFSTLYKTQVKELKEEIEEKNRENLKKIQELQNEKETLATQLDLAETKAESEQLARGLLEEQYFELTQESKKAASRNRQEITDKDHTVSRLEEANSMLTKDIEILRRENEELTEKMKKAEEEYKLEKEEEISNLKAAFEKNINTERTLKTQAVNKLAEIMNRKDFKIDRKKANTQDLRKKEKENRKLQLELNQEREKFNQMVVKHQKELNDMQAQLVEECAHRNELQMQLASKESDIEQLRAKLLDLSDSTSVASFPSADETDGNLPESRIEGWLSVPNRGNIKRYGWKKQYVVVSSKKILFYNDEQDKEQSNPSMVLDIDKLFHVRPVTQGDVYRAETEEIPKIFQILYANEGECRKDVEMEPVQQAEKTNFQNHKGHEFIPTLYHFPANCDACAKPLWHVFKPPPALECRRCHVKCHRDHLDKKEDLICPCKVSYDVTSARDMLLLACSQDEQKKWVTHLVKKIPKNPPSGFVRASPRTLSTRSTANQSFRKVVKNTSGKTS

IC50 (ROCK1)	IC50 (ROCK2)	IC50 (TGFBR1)	IC50 (ROCK1; [3])	IC50 (Py2T cells; [5])	IC50 (ROCK2; [6])	IC50 (NMuMG cells; [9])	IC50 (NMuMG cells; [10])	IC50 (NMuMG cells; [11])	IC50 (NMuMG cells; [12])	IC50 (NMuMG cells; [8])	FA IC50 (focal adhesions) (Py2T cells; [13])	FN IC50 (fibronectin patches) (Py2T cells; [13])	SF IC50 (stress fibers) (Py2T cells; [13])	Structure (SMILES)	IC50 (NMuMG cells; [1])	Emax (maximal effect on cell count) (NMuMG cells; NMuMG)	IC50 (Py2T cells; [4])	Emax (maximal effect on cell count) (Py2T cells; Py2T)	IC50 (Py2T cells; [7])	Emax (NMuMG cells; Mus musculus)	further results
> 10000 nM	> 10000 nM	> 10000 nM	–	–	–	–	–	–	–	–	–	–	–	CCN1CCN(c2ccc(Nc3cc(N(C)C(=O)Nc4c(Cl)c(OC)cc(OC)c4Cl)ncn3)cc2)CC1 [BGJ398]	1500 nM	n.m.	–	–	–	–	IC50 (PDGFRB): 7430 nM; IC50 (TGFBR2): > 10000 nM; FA IC50 (focal adhesion formation) (NMuMG cells; [2]): n.m.; FN IC50 (fibronectin patch formation) (NMuMG cells; [2]): n.m.; SF IC50 (stress fibers) (NMuMG cells; [2]): n.m.; IC50 (SRC): 7940 nM
–	–	–	54 nM	> 25000 nM	17.8 nM	–	–	–	–	–	–	–	–	NC(=O)c1ccc(NC(=O)NCc2cccc(C(=O)Nc3ccc4c(c3)CNCC4)c2)cc1 [CAY10622]	–	–	> 25000 nM	18.4%	–	–	IC50 (Py2T cells; Py2T, TGFβ plus compound, 4 days, read-out: FA IC50 (focal adhesions)): > 25000 nM; IC50 (Py2T cells; Py2T, TGFβ plus compound, 4 days, read-out: FN IC50 (fibronectin patches)): > 25000 nM; IC50 (Py2T cells; Py2T, TGFβ plus compound, 4 days, read-out: SF IC50 (stress fibers)): > 25000 nM; IC50 (ROCK): > 10000 nM
46.7 nM	55.3 nM	–	–	–	–	127 nM	264 nM	82 nM	158 nM	142 nM	–	–	–	CC1=C(C(=O)Nc2cc3cn[nH]c3cc2F)C(c2ccc(C(F)(F)F)cc2)CC(=O)N1 (stereo not shown) [GSK429286A]	> 25000 nM	–	–	–	20300 nM	33.2%	IC50 (Py2T cells; Mus musculus, 96 h, Py2T, TGFβ plus compound, 4 days, read-out: FA IC50 (focal adhesions)): 245 nM; IC50 (Py2T cells; Mus musculus, 96 h, Py2T, TGFβ plus compound, 4 days, read-out: FN IC50 (fibronectin patches)): 192 nM; IC50 (Py2T cells; Mus musculus, 96 h, Py2T, TGFβ plus compound, 4 days, read-out: SF IC50 (stress fibers)): 105 nM; IC50 (Py2T cells; [8]): 51.8 nM; Emax (Py2T cells; Mus musculus, read-out: Emax (maximal effect on cell count)): 47.5%; IC50 (ROCK; Rattus norvegicus, 1.5 h): 29 nM
–	–	–	> 10000 nM	232 nM	> 10000 nM	–	–	–	–	–	n.m.	n.m.	n.m.	CCN(CC)CCCCNc1ncc2cc(-c3c(Cl)cccc3Cl)c(NC(=O)NC(C)(C)C)nc2n1 [PD-161570]	–	50.8%	479 nM	43%	–	–	IC50 (PDGFRA): 2370 nM; IC50 (PDGFRB; read-out: PDGFRB IC50, ATP at apparent Km): 95.8 nM; IC50 (FGFR2; read-out: FGFR2 IC50, ATP at apparent Km): 6.5 nM; IC50 (FGFR3; read-out: FGFR3 IC50, ATP at apparent Km): 27.2 nM; IC50 (TGFBR2; read-out: TGFBR2 IC50, ATP at apparent Km): 1280 nM; IC50 (NMuMG cells; NMuMG, TGFβ1 2 ng/ml plus compound, 4 days, parameter decreased by 50%, read-out: FA IC50 (focal adhesion formation)): 337 nM; IC50 (NMuMG cells; NMuMG, TGFβ1 2 ng/ml plus compound, 4 days, parameter decreased by 50%, read-out: FN IC50 (fibronectin patch formation)): 1040 nM; IC50 (NMuMG cells; NMuMG, TGFβ1 2 ng/ml plus compound, 4 days, parameter decreased by 50%, read-out: SF IC50 (stress fibers)): 702 nM; IC50 (NMuMG cells; NMuMG, cell count decreased by 50% compared to DMSO control, read-out: Tox IC50): 4970 nM; IC50 (NMuMG cells; NMuMG, cell count increased by 50% compared to 100% with 10 μM SB-431542, read-out: CCI IC50 (cell count increase)): 525 nM; IC50 (NMuMG cells; NMuMG, mean of IC50 values obtained for FA, SF, FN, read-out: EMT (FA/SF/FN) combined IC50): 694 nM; IC50 (TGFBR1; read-out: TGFBR1 IC50, ATP at apparent Km): 44.9 nM; IC50 (FGFR4; read-out: FGFR4 IC50, ATP at apparent Km): 667 nM; IC50 (SRC; read-out: SRC IC50, ATP at apparent Km): 5.2 nM
–	–	6.8 nM	–	–	–	27 nM	39 nM	79 nM	48.3 nM	17 nM	n.m.	n.m.	n.m.	CCN(CC)CCOc1ccc(Nc2ncc3cc(-c4c(Cl)cccc4Cl)c(=O)n(C)c3n2)cc1 [PD-166285]	229 nM	–	–	n.m.	138 nM	24%	IC50 (FGFR2): 1.8 nM; IC50 (FGFR3): 9 nM; IC50 (TGFBR2; TGFBR2 IC50, ATP at apparent Km): 137 nM; IC50 (FGFR4): 55.5 nM
